A word on the melting point: it is the temperature, or range, at which the solid turns liquid.

The conditions of this series: a range is the spread between reports.
Take `Cc1ccccc1CCl`: the melting point is -2 to 2 °C.

`CCCCCCCCCCCCCC(=O)OC` returned a melting point of 18 to 19 °C.

In turn, `Oc1ccnc2ccccc12` came in with a melting point of 201 to 203 °C.

With `ClC(Cl)(Cl)c1ccccc1`, the melting point is -8 to -4 °C.

For the compound `O=C1Cc2ccccc2N1`, the melting point lay within 126 to 128 °C.

Compound `CN(C)c1ccc(C=O)cc1` registered a melting point of 74 to 75 °C.

Compound `COc1ccc(Cl)c(Cl)c1Cl` came in with a melting point of 69 to 70 °C.

Consider `CC(C)(C)c1ccc2oc(-c3ccc(-c4nc5cc(C(C)(C)C)ccc5o4)s3)nc2c1`, for which the melting point was 199 to 201 °C.

On to `Cc1ccc[nH]c1=O`, for which the melting point was 138 to 142 °C.

As to `C=COCC`, the melting point is -116 to -115 °C.

For the compound `OC1CCCCC1`, the melting point was 21 to 25.9 °C.

Take `COc1cc(C(=O)O)cc(OC)c1O`: the melting point is 205 to 208 °C.

In the case of `O=[N+]([O-])c1ccc(Cl)cc1`, the melting point was in the range of 83.5 to 84 °C.

Regarding `CCCCCCOC=O`, the melting point was -63 to -62.6 °C.

On to `C=CCSCC=C`, for which the melting point was -85 to -83 °C.

`CCOC(=O)C(C(=O)OCC)c1ccccc1` came in with a melting point of 16 to 16.5 °C.

`O=c1[nH]c(=O)c2nccnc2[nH]1` registered a melting point of 348 °C.

For the compound `Ic1ccc(I)cc1`, the melting point is 130 to 132 °C.

In the case of `c1ccc(CN(Cc2ccccc2)c2ccccc2)cc1`, the melting point is 69 to 70 °C.

With `CC(C)(C)Cl`, the melting point is -26 to -25 °C.

On to `C/C=C/C`, for which the melting point was -106 to -105 °C.

As to `O=C(O)C(F)(F)C(F)(F)C(=O)O`, the melting point is 115 to 119 °C.

In the case of `c1ccc(CNc2ncnc3nc[nH]c23)cc1`, the melting point was 231 °C.

On to `O=[N+]([O-])c1cc(Cl)c(Cl)c(Cl)c1`, for which the melting point lay in the range of 70 to 72.5 °C.

`OCCCCCCCO` gave a melting point of 18 to 22.5 °C.

For `OCCN1CCOCC1`, the melting point was -1.6 to 2 °C.

For the compound `O=C(O)Cc1cccc2ccccc12`, the melting point fell in the range of 130 to 135 °C.

In turn, `COc1ccc([N+](=O)[O-])c(OC)c1` gave a melting point of 74 to 76.5 °C.

In turn, `NC(=O)c1cccc([N+](=O)[O-])c1` yielded a melting point of 142 to 143 °C.

On to `CC(=O)c1ccc(Cl)cc1Cl`, for which the melting point lay within 33 to 34 °C.

`O=C(O)CC[N+](=O)[O-]` had a melting point of 62 to 64 °C.

Turning to `CCC(=O)c1ccc(C)cc1`, the melting point lay in the range of 7 to 7.2 °C.

Turning to `ClCC(Cl)(Cl)Cl`, the melting point was -70.2 to -70 °C.

Consider `ClC(Cl)=C(Cl)Cl`, for which the melting point was -22.3 to -22 °C.

`Cc1ccc(N)cc1Br`: the melting point was 26 to 27 °C.

For the compound `CCn1c2ccccc2c2ccccc21`, the melting point was 68 to 69 °C.

In the case of `O=C(O)c1ccccc1-c1c2cc(Br)c(=O)c(Br)c-2oc2c(Br)c(O)c(Br)cc12`, the melting point was in the range of 296 to 300 °C.

Compound `O=C1c2ccccc2C(=O)c2c(O)ccc(O)c21` showed a melting point of 197 to 200 °C.

Regarding `CCCC`, the melting point was -138 to -137 °C.

`CCCCCCCCOc1ccc(C(=O)c2ccccc2)c(O)c1` displayed a melting point of 48 to 48.5 °C.

With `Cc1ccc(Cl)c(N)c1`, the melting point is 29.5 to 32 °C.

In turn, `OCc1ccncc1` had a melting point of 53 to 54 °C.

On to `Cc1cccc(C(=O)O)c1`, for which the melting point is 109 to 112 °C.

Turning to `CC=CC=CCO`, the melting point lay within 30.5 to 31 °C.

Turning to `CC#CC#CC`, the melting point was 67 to 67.8 °C.

For the compound `CCCCCCCCCCCBr`, the melting point was -10 to -9 °C.

In turn, `Cc1ccc(OC(=O)c2ccccc2)cc1` returned a melting point of 70 to 71.5 °C.

`COc1cc(CO)ccc1O` had a melting point of 114 to 115 °C.

For the compound `O=C(O)c1ccccc1Nc1ccccc1`, the melting point is 184 to 187 °C.

In turn, `CC(=O)Oc1ccc(-c2ccc(OC(C)=O)cc2)cc1` returned a melting point of 161 to 164 °C.

The compound `COC(=O)C1C2CC3c4[nH]c5cc(OC)ccc5c4CCN3CC2CC(OC(=O)c2cc(OC)c(OC)c(OC)c2)C1OC` (stereo unspecified) gave a melting point of 264 to 265 °C.

`Cc1ccc(N)cc1Cl`: the melting point was 23 to 26 °C.

Regarding `Clc1ccccc1Br`, the melting point was -13 to -12.3 °C.

For `CCCCCCOCCO`, the melting point is -45.1 to -42 °C.

In turn, `CC(=O)CCCC(=O)O` displayed a melting point of 12 to 13.5 °C.

`Cc1c(Cl)cccc1[N+](=O)[O-]` showed a melting point of 36 to 37.8 °C.

As to `CCCCCCCCCCCCN(C)C`, the melting point was -20 to -15 °C.

`OCCNCCO`: the melting point is 28 to 29 °C.

In the case of `Nc1ccc(S(=O)(=O)Nc2ccccn2)cc1`, the melting point is 190 to 192 °C.

`O=[N+]([O-])c1ccc(O)c(O)c1` yielded a melting point of 175 to 176 °C.

As to `CCCC(C)=C(C)C`, the melting point was -115 °C.

In turn, `Nc1ccccc1N` returned a melting point of 101 to 102 °C.

`c1ccc(CN(Cc2ccccc2)Cc2ccccc2)cc1`: the melting point lay within 91.5 to 93 °C.

`O=[N+]([O-])c1cc(F)ccc1F`: the melting point was -12 to -11.7 °C.

Take `CC1CC1`: the melting point was -177 °C.

For `CC(C)OC(C)C`, the melting point is -86.8 to -86 °C.

For `C=Cc1ccc(F)cc1`, the melting point was -36 to -34.5 °C.

As for `COc1cccc(N)c1`, the melting point was -1 to 0 °C.

In the case of `NC(=O)c1ccc([N+](=O)[O-])cc1`, the melting point was 200 to 202 °C.

With `N#Cc1ccccc1[N+](=O)[O-]`, the melting point fell in the range of 108 to 109 °C.

As to `CCc1ccc(O)cc1`, the melting point lay in the range of 43 to 47 °C.

As to `C=Cc1ccc(-c2ccccc2)cc1`, the melting point lay within 116 to 119 °C.

Compound `C[C@H](O)CN` yielded a melting point of 21.5 to 25 °C.

On to `CCCCC(CC)COC(=O)CCCCC(=O)OCC(CC)CCCC` (stereo unspecified), for which the melting point is -67.8 to -67 °C.

As to `c1ccc(/N=N/c2ccccc2)cc1`, the melting point is 67 to 69 °C.

On to `OCC(O)C1OC2OC(C(Cl)(Cl)Cl)OC2C1O` (stereo unspecified), for which the melting point lay within 183 to 187 °C.

Consider `CC1(C)CC=CCC1`, for which the melting point was -74.4 to -74 °C.

The compound `CC(C)=CCN1CCC2(C)c3cc(O)ccc3CC1C2C` (stereo unspecified) came in with a melting point of 146 °C.

For the compound `CCCCCCCCCl`, the melting point was -58 to -57.8 °C.

`CNC1=Nc2ccc(Cl)cc2C(c2ccccc2)=[N+]([O-])C1` returned a melting point of 236 °C.

For the compound `CCNc1ccc([N+](=O)[O-])cc1`, the melting point lay in the range of 96 to 97 °C.

Turning to `Nc1ccc2[nH]ncc2c1`, the melting point lay within 175 to 176 °C.

The compound `CC(=O)OC1CCC2(C)C(CC(=O)C3C4CCC(=O)C4(C)CCC32)C1` (stereo unspecified) displayed a melting point of 164 to 165 °C.

Regarding `CN1C2CCC1CC(=O)C2`, the melting point is 42 to 43 °C.

`NCCN` displayed a melting point of 8.5 to 11.1 °C.

For `O=Cc1cccc(C(=O)O)c1`, the melting point lay in the range of 174 to 175 °C.

Consider `CCCC=O`, for which the melting point is -99 to -96 °C.

`CNC(=O)CSP(=S)(OC)OC` returned a melting point of 51.5 to 52 °C.

Turning to `CN(C)c1ccccc1`, the melting point fell in the range of 2 to 3 °C.

Compound `CON(C)C(=O)Nc1ccc(Cl)c(Cl)c1` came in with a melting point of 93 to 93.5 °C.

Consider `COc1ccc2nc(N)sc2c1`, for which the melting point fell in the range of 163 to 166 °C.

Consider `CCc1nc(N)nc(N)c1-c1ccc(Cl)cc1`, for which the melting point was in the range of 233 to 234 °C.

Compound `COc1ccc(OC)c(C(C)=O)c1` gave a melting point of 19 to 20 °C.

For the compound `CS(=O)(=O)c1ccc(C(=O)O)cc1`, the melting point was 270 to 273 °C.

`O=c1c(-c2ccccc2)c1-c1ccccc1`: the melting point fell in the range of 119 to 120 °C.

`Cc1nnc(C)s1`: the melting point was in the range of 63 to 65 °C.

For `N#Cc1cc(Cl)ccc1N`, the melting point is 96 to 97 °C.

`NNc1c(F)c(F)c(F)c(F)c1F` returned a melting point of 75 to 76 °C.

Regarding `O=CC1CCCCC1`, the melting point was in the range of 34.5 to 35 °C.

In the case of `Brc1ccc(Br)c(Br)c1`, the melting point was 42 to 44.5 °C.

Compound `O=C(O)c1cc(Cl)cc(Cl)c1` had a melting point of 186 to 188 °C.

In turn, `Fc1ccccc1-c1ccccc1` came in with a melting point of 73.5 to 74 °C.

As to `CC(C)=C(C)C`, the melting point was -75 to -74 °C.

Consider `CCCCCCCCCCCCI`, for which the melting point was -3 to 0.3 °C.

`CCCCCCC(C)CC` (stereo unspecified): the melting point is -85 to -84.8 °C.

In turn, `Cc1cc(C)cc([N+](=O)[O-])c1` had a melting point of 71 to 75 °C.

Turning to `CCC(C)(C)CC(C)C`, the melting point is -113 °C.

In the case of `CC(C)(C)c1ccccc1O`, the melting point is -7 to -6.8 °C.

`c1cncnc1` came in with a melting point of 21 to 22 °C.

Consider `O=Cc1ccc(Cl)cc1`, for which the melting point was in the range of 46 to 48.5 °C.

`NCC(O)c1ccccc1` (stereo unspecified) registered a melting point of 56.5 to 57 °C.

For `CCCCCI`, the melting point is -86 to -85.6 °C.

In turn, `CCCCCCCCCCCCCCCC(=O)OCC(COC(=O)CCCCCCCCCCCCCCC)OC(=O)CCCCCCCCCCCCCCC` returned a melting point of 62 to 66.5 °C.

In turn, `NC(=O)c1cccc2ccccc12` came in with a melting point of 206 to 208 °C.

`Oc1cc(Cl)ccc1Cl` gave a melting point of 57 to 59 °C.

`Cc1ccccc1C(N)=O` returned a melting point of 142 to 147 °C.

Consider `O=Nc1ccccc1`, for which the melting point is 65 to 68.5 °C.

In turn, `Cc1cccc([N+](=O)[O-])c1N` had a melting point of 95 to 96 °C.

`Brc1cc(Br)c(Br)cc1Br` displayed a melting point of 178 to 182 °C.

`Cc1c(O)cccc1O`: the melting point fell in the range of 118 to 120 °C.

The compound `CCOC(=O)C(=Cc1ccccc1)C(=O)OCC` yielded a melting point of 30 to 32 °C.

Regarding `O=C(O)c1ccccc1F`, the melting point was 124 to 126 °C.

With `CC(C)CCCl`, the melting point is -104 °C.

`Brc1sc(Br)c(Br)c1Br` yielded a melting point of 115 to 118 °C.

As for `Nc1ccc(Cl)cc1[N+](=O)[O-]`, the melting point fell in the range of 116 to 118 °C.

The compound `NS(=O)(=O)c1ccccc1` gave a melting point of 151 to 153 °C.

As for `Nc1c(Br)cc([N+](=O)[O-])cc1[N+](=O)[O-]`, the melting point was 152 to 154 °C.

On to `ClCC(CCl)(CCl)CCl`, for which the melting point lay in the range of 95 to 97 °C.

The compound `OCC1c2ccccc2-c2ccccc21` came in with a melting point of 104 to 106 °C.

Turning to `CC(C)c1ccc(C(=O)O)cc1`, the melting point is 118 to 119 °C.

For the compound `SCc1ccccc1`, the melting point was -30 to -29 °C.

In turn, `CC12CCC(CC1)C(C)(C)O2` came in with a melting point of 1 to 1.5 °C.

Compound `COC(=O)c1ccccc1C(=O)OC` returned a melting point of 2 to 5.5 °C.

In turn, `CC(C)(C)c1cc(O)c(C(C)(C)C)cc1O` came in with a melting point of 216 to 218 °C.

Take `Cc1c(N)c(=O)n(-c2ccccc2)n1C`: the melting point was in the range of 107 to 109 °C.

Compound `CC(N)=O` registered a melting point of 79 to 81 °C.

For the origin of these results see a melting point compilation (Tetko et al.).
